According to patent publication US12685729B2, “Use of 2,3,5-substituted thiophene compound for enhancement of radiotherapy” (Pharos iBio Co., Ltd., priority 2018, dated 2026):

Tests used:
[1] = test system: JIMT-1 cell line; assay: Tumor volume in mice transplanted with JIMT-1 breast cancer cell line after PHI-101 and radiation; format: in vivo; settings: JIMT-1 xenograft mice; PHI-101 20 mg/kg intraperitoneally 24 h and 3 h before and 24, 48, 72 h after 3 Gy 60Co γ-ray, repeated three times for 3 weeks; combination
Procedure: (§1) 6-week-old female Balb/c nu/nu mice (Orient Bio Inc.) and NOD SCID mice (Orient Bio Inc.) were prepared. The mice were acclimated for 1 week after purchase, and then tumor transplants were prepared. During the animal experiment, cages were replaced once a week, and drinking water and feed were often checked to ensure that they were always sufficiently supplied.
(§2) Each of the tumor cell lines shown in Table 1 below was cultured with DMEM (Dulbecco's Modified Eagle Medium) or RPMI-1640 in a 150-mm culture dish (SPL) under 5% CO2 at 37° C. Then, each tumor cell line was diluted to a density of 1×10^6 cells/100 μl using cold DPBS buffer (Welgene), and kept cold on ice until transplantation. […]
(§3) When each tumor cell line transplanted to the mice in Example 1-2 proliferated and the tumor begun to be visible, the lengths of the longest and shortest diameters of the tumor were measured using digital calipers (Mitutoyo). […]
(§4) The tumor volume was measured at intervals of 2 to 4 days, and was calculated using the following equation: V=½(L×W^2) • V=volume (mm^3) • L=length [mm], the longest diameter • W=width [mm], the shortest diameter
(§5) The measurement end time was determined based on when the average volume of the control tumor reached about 2,000 mm^3. The data of the measured tumor volume was first organized in Microsoft Excel, and plotted in GraphPad Prism. […]

[2] = test system: JIMT-1 breast cancer cell line; assay: Clonogenic assay after PHI-101 and radiation, JIMT-1; format: cell-based; settings: PHI-101 0.1, 0.2 or 0.5 μM, 0, 1, 2 or 3 Gy 3 hours after treatment, colonies after 10 days
Procedure: (§6) Whether the PHI-101 compound can act as a radiotherapy sensitizer for breast cancer was evaluated using clonogenic assay.
(§7) Specifically, each of the breast cancer cell lines shown in Table 2 below was added to DMEM medium in a 60-mm dish at a density of 300 cells, and treated with PHI-101 at a concentration of 0.1, 0.2 or 0.5 μM. As a control, DMSO was used.
(§8) 3 hours after PHI-101 treatment, the cells were irradiated with radiation having an intensity of 0, 1, 2 or 3 Gy. Next, the cells were cultured under 5% CO2 at 37° C. for 10 days, and then the formed colonies were stained with 0.4% crystal violet. Then, the colonies were counted and the surviving fraction of the cells was calculated. The results of calculating the surviving fraction were normalized and fitted to a linear-quadratic model using Kaleidagraph version 351 (Synergy Software, Reading, PA).

[3] = test system: HCT116 cell line; assay: Tumor volume in mice transplanted with HCT116 colorectal cancer cell line after PHI-101 and radiation; format: in vivo; settings: HCT116 xenograft mice; PHI-101 20 mg/kg intraperitoneally 24 h and 3 h before and 24 h after 3 Gy X-ray, repeated twice at one-week interval; combination
Procedure: as §1, §2, §3, §4, §5

[4] = test system: MDA-MB-468 breast cancer cell line; assay: Clonogenic assay after PHI-101 and radiation, MDA-MB-468; format: cell-based; settings: PHI-101 0.1, 0.2 or 0.5 μM, 0, 1, 2 or 3 Gy 3 hours after treatment, colonies after 10 days
Procedure: as §6, §7, §8

[5] = test system: FaDu cell line; assay: Tumor volume in mice transplanted with FaDu head and neck cancer cell line after PHI-101 and radiation; format: in vivo; settings: FaDu xenograft mice; PHI-101 20 mg/kg intraperitoneally 3 h before and 24, 48, 72, 96 h after 3 Gy 60Co γ-ray, repeated three times for 3 weeks; combination
Procedure: as §1, §2, §3, §4, §5

NC(=O)Nc1cc(C#Cc2cccc(F)c2)sc1C(=O)N[C@H]1CCCNC1 [PHI-101, (S)-5-((3-fluorophenyl)ethynyl)-N-(piperidin-3-yl)-3-ureido-thiophene-2-carboxamide]
tumor volume inhibited compared to when only irradiation was performed [1]: 20.53% | tumor volume reduced compared to that in the control group [1]: 27.32% | radiation sensitivity of the breast cancer cells (surviving fraction, linear-quadratic model) [2]: increased in a concentration-dependent manner | tumor volume inhibited compared to when only irradiation was performed [3]: 36.60% | tumor volume reduced compared to that in the control group [3]: 49.58% | radiation sensitivity of the breast cancer cells (surviving fraction, linear-quadratic model) [4]: increased in a concentration-dependent manner | tumor volume inhibited compared to when only irradiation was performed [5]: 29.16% | tumor volume reduced compared to that in the control group [5]: 37.50%
